In patent EP0765662A1, “HIV GROWTH INHIBITORY COMPOSITION” (Kochi, Mutsuyuki, priority 1994, dated 1995):

System: HIVBRU
Assay: HIV-p24 antigen released from HIV-infected A3.01 cells stimulated with TNF-α
Assay type: cell-based
Settings: AZT 2 µg/ml in place of SBA, HIV-infected A3.01 cells
Text: In view of all these test results, it appears that the inhibitory activity of SBA against the replication of HIV-1 is not attributable to that SBA directly acts on HIV so as to make lose the infectivity (infectious power) of HIV. (c) Test of examining the inhibitory activity of SBA against such replication of the viral particles of HIV which is induced when a tumor necrosis factor (TNF-α) is introduced into the HIV-infected A3.01 cells AIDS virus, HIVBRU (its reverse transcriptase activity, 0.03 cpm/cell) and 6 x 10^6 cells of the A3.01 cell (HAT-susceptible CEM cell strain) were mixed and reacted together in a culture medium at 37°C for 1 hour, and thereafter the mixed cells were washed with PBS to remove the excess of the particles of HIV virus therefrom. The A3.01 cells (5 x 10^5 cells) which had been so infected with HIV were then cultivated in various culture media containing TNF-α and SBA at different concentrations of them. The amount of the HIV-p24 antigen (an HIV-structural protein of HIV) which was released in the culture supernatant from the cultivated cells under test was periodically measured during the period of between 0 day to 5th day of the cultivation. The culture medium used for the above-mentioned cultivation of the A3.01 cells was an RPM1-1640 medium comprising 10% of heat-treated embryonic bovine serum, and minor amounts of penicillin, streptomycin, glutamine and mercaptoethanol. The amount of the HIV-p24 antigen produced was measured with lapse of time, and the relationship of the amount of the HIV-p24 antigen to the concentration of SBA is summarily tabulated in Table 4 below.
In the tests above, the replication of the viral particles of HIV was examined in terms of the amount of the p24 antigen protein produced and appearing in the culture supernatant from the cultivated cells. Thus, the amount of the p24 antigen produced was measured periodically over 6 days after the A3.01 cells were infested with HIV. It was then observed that in the absence of SBA, the replication of the viral particles of HIV was induced in the A3.01 cells by stimulation with 10 units/ml of TNF-α added. […] Thus, the effective amount of SBA has the activity to inhibit the replication of the viral particles of HIV within the cells to an extent as same as AZT, and from this it is expected that SBA is useful similarly to AZT for the therapeutic treatments of AIDS. (d) Tests for evaluating an inhibitory activity of SBA to the formation of giant cells from HIV-infected Molt-4 cells In a similar manner to that in the above Test (c), Molt-4 cells (a CD4-positive human T-cell strain) were infected with AIDS virus, HIVBRU. Thereafter, The HIV-infected Molt-4 cells were mixed with such Molt-4 cells which had no HIV-infection. And the mixture of these cells were cultivated at a high density of the mixed cells in the above-mentioned improved RPM1-1640 medium containing SBA at its different concentrations. Whereupon, there was examined the presence of cell-fused cell(s) (namely, the giant cells) which were formed by fusion of the HIV-infected cells with each other or by fusion of the HIV-infected cells with the HIV-non-infected cells. The formation and appearance of the giant cells was confirmed by microscopic observation. The size of such giant cells is clearly different from the size of the other usual cells. […] Namely, it is shown that SBA has an anti-HIV activity. […] In the initial stage of the transcription of HIV-1 gene, said NFkB, i.e. the transcription regulating factor of the host cells, plays an important role. […] NFkB is known to be a complex protein which is composed by the association of a molecule of protein having a molecular weight of about 50,000 (p50) with a molecule of protein having a molecular weight of about 65,000 (p65). […]

Measured: Amount of the HIV p24 antigen

Cc1cn([C@H]2C[C@H](N=[N+]=[N-])[C@@H](CO)O2)c(=O)[nH]c1=O [AZT, azidothymidine, reference compound]
0 pg/mL: 0th day | 1st day | 2nd day | 3rd day | 4th day | 5th day
